Test results reported in US12528811B2, “Substituted cyclopenta[2,1-b:5,1-b’]dipyrroles as Janus kinase (JAK) inhibitors” (UNIVERSITÄT BERN, priority 2019, dated 2026).

Assays:
Assay type in all cases: biochemical
JAK2 = JAK2 (Homo sapiens, UniProt O60674); experiment: JAK2 enzymatic kinase inhibition assay; details: read-out: Kinase inhibitory activities given in IC50 (nM), JAK2
JAK1 = JAK1 (Homo sapiens, UniProt P23458); experiment: JAK1 enzymatic kinase inhibition assay; details: read-out: Kinase inhibitory activities given in IC50 (nM), JAK1
JAK3 = target: T1, JAK3 (Homo sapiens, UniProt P52333); experiment: JAK3 enzymatic kinase inhibition assay; details: read-out: Kinase inhibitory activities given in IC50 (nM), JAK3
T1 sequence (P52333 1-1124): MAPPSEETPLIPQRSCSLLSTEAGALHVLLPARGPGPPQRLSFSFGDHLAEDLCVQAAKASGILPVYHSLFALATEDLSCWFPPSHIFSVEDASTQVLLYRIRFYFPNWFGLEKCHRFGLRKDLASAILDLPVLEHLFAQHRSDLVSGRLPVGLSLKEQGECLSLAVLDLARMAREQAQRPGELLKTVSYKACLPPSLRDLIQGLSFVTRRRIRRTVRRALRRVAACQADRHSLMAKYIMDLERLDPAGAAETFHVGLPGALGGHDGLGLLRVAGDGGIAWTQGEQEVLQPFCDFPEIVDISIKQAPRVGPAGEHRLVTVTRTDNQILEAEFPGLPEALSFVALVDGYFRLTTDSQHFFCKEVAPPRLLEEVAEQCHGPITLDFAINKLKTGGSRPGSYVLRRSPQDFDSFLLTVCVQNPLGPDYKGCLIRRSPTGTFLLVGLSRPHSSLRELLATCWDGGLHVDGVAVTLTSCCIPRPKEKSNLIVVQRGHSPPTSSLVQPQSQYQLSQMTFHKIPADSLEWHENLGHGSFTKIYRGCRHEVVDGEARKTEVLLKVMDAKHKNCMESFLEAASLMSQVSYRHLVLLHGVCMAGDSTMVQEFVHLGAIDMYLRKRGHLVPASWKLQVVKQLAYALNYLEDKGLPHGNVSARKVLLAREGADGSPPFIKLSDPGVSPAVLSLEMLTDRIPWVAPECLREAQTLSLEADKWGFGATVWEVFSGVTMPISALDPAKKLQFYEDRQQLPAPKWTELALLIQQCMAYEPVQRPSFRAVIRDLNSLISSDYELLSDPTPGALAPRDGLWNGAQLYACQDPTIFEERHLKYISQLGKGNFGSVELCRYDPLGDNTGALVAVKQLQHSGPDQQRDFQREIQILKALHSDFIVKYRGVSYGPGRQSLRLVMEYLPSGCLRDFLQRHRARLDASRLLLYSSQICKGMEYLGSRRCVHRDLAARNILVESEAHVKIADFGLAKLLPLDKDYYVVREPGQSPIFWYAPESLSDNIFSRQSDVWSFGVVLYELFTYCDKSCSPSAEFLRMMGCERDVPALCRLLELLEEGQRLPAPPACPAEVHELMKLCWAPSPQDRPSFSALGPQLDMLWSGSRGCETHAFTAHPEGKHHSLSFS

TYK2 = TYK2 (Homo sapiens, UniProt P29597); experiment: TYK2 enzymatic kinase inhibition assay; details: read-out: Kinase inhibitory activities given in IC50 (nM), TYK2
Sequence of TYK2 (P29597 whole entry): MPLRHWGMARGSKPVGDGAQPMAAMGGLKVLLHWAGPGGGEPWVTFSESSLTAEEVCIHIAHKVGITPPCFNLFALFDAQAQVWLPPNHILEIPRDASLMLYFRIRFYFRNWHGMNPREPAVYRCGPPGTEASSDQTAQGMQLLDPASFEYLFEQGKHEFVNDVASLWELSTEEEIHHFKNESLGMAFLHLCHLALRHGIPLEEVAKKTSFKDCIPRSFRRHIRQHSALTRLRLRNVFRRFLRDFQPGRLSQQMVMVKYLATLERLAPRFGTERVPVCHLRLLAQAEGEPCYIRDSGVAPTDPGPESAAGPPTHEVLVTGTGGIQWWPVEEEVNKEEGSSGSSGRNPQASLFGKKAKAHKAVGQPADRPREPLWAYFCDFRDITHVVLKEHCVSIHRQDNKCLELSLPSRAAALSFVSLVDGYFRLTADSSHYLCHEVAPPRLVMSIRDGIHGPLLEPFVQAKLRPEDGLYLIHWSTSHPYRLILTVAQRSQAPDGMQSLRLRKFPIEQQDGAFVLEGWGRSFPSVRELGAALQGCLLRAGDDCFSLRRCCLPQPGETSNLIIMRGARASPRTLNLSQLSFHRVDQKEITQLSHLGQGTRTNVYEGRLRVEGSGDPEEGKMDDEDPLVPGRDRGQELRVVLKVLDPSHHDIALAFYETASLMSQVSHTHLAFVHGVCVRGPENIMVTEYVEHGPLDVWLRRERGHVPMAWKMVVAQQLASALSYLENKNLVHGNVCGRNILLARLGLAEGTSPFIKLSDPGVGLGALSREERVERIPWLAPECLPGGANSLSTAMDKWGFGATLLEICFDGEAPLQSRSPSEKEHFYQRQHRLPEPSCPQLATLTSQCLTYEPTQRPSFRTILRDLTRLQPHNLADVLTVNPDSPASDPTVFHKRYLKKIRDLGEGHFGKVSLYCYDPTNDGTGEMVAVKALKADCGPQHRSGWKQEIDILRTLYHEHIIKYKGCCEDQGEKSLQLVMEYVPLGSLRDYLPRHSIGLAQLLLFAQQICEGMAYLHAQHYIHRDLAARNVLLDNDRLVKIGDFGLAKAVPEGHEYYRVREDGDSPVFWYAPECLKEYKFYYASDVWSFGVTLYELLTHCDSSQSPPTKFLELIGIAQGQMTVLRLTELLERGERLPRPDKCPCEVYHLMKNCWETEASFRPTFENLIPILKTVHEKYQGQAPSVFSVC

Sequence of JAK2 (O60674 whole entry): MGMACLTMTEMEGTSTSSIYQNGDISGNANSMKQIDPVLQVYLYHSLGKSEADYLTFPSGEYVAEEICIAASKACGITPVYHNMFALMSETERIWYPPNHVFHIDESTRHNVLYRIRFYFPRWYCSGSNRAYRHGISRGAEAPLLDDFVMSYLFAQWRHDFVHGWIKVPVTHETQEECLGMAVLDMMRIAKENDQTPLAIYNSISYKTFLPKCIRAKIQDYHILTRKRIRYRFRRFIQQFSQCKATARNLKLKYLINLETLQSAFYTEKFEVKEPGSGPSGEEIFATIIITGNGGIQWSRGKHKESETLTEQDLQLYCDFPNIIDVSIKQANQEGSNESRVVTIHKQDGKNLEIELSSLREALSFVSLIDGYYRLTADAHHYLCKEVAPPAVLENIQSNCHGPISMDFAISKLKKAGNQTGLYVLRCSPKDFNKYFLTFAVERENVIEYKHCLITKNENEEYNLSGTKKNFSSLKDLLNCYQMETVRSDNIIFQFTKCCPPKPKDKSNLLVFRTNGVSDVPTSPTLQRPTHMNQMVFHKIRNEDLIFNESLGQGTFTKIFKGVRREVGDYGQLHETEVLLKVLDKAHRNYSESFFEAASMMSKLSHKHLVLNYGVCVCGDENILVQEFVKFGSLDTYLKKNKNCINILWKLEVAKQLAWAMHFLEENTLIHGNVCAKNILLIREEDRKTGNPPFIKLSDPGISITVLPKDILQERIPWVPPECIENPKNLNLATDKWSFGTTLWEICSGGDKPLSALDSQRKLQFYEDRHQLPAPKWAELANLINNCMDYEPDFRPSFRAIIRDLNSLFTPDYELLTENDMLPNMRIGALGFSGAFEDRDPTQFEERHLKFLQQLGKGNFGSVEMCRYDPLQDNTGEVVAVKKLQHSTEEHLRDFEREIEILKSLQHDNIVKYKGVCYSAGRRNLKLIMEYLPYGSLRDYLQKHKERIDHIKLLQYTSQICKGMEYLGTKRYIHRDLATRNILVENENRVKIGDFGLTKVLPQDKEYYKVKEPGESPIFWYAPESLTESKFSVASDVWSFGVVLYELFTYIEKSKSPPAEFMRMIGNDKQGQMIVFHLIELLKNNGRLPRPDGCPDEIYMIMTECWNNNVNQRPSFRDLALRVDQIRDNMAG
Sequence of JAK1 (P23458 whole entry): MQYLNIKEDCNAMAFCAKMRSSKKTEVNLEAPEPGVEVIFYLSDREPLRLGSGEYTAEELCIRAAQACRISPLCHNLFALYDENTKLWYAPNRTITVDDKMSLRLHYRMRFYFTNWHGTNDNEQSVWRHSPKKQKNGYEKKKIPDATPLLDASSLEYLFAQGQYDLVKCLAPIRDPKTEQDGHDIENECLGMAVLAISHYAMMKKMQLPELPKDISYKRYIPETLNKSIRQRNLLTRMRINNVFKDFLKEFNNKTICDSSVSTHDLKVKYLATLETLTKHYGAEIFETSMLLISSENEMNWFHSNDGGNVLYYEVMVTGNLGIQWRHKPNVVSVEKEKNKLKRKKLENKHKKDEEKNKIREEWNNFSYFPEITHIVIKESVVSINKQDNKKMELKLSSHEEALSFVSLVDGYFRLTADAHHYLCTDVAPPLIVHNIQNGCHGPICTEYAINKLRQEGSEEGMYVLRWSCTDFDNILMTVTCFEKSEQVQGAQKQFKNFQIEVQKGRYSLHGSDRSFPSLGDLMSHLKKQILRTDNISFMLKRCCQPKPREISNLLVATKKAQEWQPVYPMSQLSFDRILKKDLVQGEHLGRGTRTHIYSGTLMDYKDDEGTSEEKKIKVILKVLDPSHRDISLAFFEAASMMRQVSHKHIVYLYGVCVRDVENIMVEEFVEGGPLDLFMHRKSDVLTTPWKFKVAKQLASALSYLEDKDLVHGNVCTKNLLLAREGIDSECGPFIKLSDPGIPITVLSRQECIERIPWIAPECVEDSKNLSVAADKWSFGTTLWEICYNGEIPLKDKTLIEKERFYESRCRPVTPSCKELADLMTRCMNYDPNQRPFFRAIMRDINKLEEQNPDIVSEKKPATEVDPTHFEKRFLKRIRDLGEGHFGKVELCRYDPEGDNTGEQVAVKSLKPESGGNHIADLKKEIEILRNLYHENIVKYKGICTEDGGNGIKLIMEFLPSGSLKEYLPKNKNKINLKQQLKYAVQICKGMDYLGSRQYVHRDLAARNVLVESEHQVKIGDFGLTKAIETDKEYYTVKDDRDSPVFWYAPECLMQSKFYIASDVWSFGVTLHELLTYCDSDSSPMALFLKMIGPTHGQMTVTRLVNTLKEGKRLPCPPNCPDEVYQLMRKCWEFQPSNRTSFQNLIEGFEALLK

Row | IC50 (JAK2) [nM] | IC50 (JAK1) [nM] | IC50 (JAK3) [nM] | IC50 (TYK2) [nM] | Structure (SMILES)
1 | 13 | 1 | 29 | 26 | N#CCC(=O)N1CCC23CCN(c4ncnc5[nH]ccc45)C2CCC13 (centres unmarked) [KMC420, 3-(6-(7H-pyrrolo[2,3-d]pyrimidin-4-yl)octahydrocyclopenta[2,1-b:5,1-b′]dipyrrol-3(3aH)-yl)-3-oxopropanenitrile]
2 | 53 | 30 | 9 | 183 | C=CC(=O)N1CCC23CCN(c4ncnc5[nH]ccc45)C2CCC13 (centres unmarked) [KMC423, 1-(6-(7H-pyrrolo[2,3-d]pyrimidin-4-yl)octahydrocyclopenta[2,1-b:5,1-b′]dipyrrol-3(3aH)-yl)prop-2-en-1-one]
